Measurements reported in patent publication US20180116975A1, “COMPOSITIONS AND COMBINATIONS FOR THE TREATMENT OF ANGIOGENESIS DISEASES AND DISORDERS” (BIOMAS LTD., priority 2015, published 2018).

System: patients with AMD (PED, subretinal fluid)
Test: Clinical study (compassionate treatment): oral AS101 in conjunction with intra vitreal anti VEGF injections
Type: in vivo, human
From the text: Patients were orally administered with AS101/Formula I in conjunction with intraocular injections of intra vitreal anti VEGF. […] A special compassionate approval has been given by the local committee of ethics in Meir medical center, Kfar Saba, and the Ministry of Health in Israel to treat these two patients with orally taken AS101.
Patient underwent an additional intra-vitreal Lucentis injection and from this point examination continued every month with treatment in PRN mode. Until Jul. 26, 2012 the patient underwent 9 intra-vitreal Lucentis injections. On January 2013 treatment was switched to Aflibercept (Eylea) and the patient received 3 montly injection and an additional injection on Jun. 18, 2013.
The patient received an intravitreal triancinolon acetonid injection followed by the 3rd lucentis one week later. […] The patient received 2 additional Lucentis injections and on Nov. 27, 2012 treatment was switched to Eylea when it became available in Israel. The patient received 8 monthly Eylea injections, the last one on Jun. 18, 2013.
On Jul. 7, 2013, the patient started to receive 12 drops of AS101 every day orally. On Aug.
Except for one occasion of a 5 month interval between 2 injections, the patient received an injection every month. […] Four days after the last Lucentis injection, on 13 Aug. 2013 the patient started to take 12 drops of AS101 orally.

Cl[TeH]1(Cl)(Cl)OCCO1 [AS101]
OCT finding after discontinuation of AS101 (Case 1, 3 weeks after AS101 was discontinued): development of new subretinal fluid in both eyes
time without need for additional injections (Case 1, left eye, until discontinuation of AS101): 8 months
subretinal fluid at the base of the PED (OCT) (Case 1, left eye, 12 drops AS101 daily orally, one month after Lucentis with triamcinilon acetonide injections): decrease of the amount of the subretinal fluid
subretinal fluid at the slope of the PED (OCT) (Case 1, left eye, next 3 monthly OCT tests after cataract surgery, on AS101): absorbed for the first time since it appeared
time without need for intravitreal injections (Case 1, right eye, until discontinuation of AS101): 10 months
adverse events (Case 2, 12 drops AS101 orally): No adverse events were reported
last visual acuity (Case 2, left eye, Nov. 11, 2014, on AS101 (20/200 at diagnosis)): 20/50
last visual acuity (Case 2, right eye, Nov. 11, 2014, on AS101): 20/30
Angiogenesis inhibitor injections during treatment according to the invention (Patient #1, LE (left eye), in 9 months, oral AS101): LE: 1 injection in 9
maximal time interval between injections (Patient #2, during AS 101 treatment with Lucentis): injections: 14 months
Angiogenesis inhibitor injections during treatment according to the invention (Patient #2, in 27 months, 12 drops AS101 orally, Lucentis PRN): 4 injections
Angiogenesis inhibitor injections during treatment according to the invention (Patient #2, in 27 months, 12 drops AS101 orally, Lucentis PRN, listed as AS 101): 4 injections in 27
progression of drusens/dry AMD to Wet AMD (observation during the compassionate treatment): did not developed to Wet AMD
time intervals between Ranibizumab injections (patient suffering from AMD, otherwise injected every month, with AS-101): 9 months

Aflibercept [Eylea, reference compound]
amount of the subretinal fluid over the peak of the PED and at the slope (Case 1, left eye, 8 monthly injections, before AS101): did not change

B1: Ranibizumab (antibody, chains of the INN, looked up, V domains shown)
VH: EVQLVESGGGLVQPGGSLRLSCAASGYDFTHYGMNWVRQAPGKGLEWVGWINTYTGEPTYAADFKRRFTFSLDTSKSTAYLQMNSLRAEDTAVYYCAKYPYYYGTSHWYFDVWGQGTLVTVSS
VL: DIQLTQSPSSLSASVGDRVTITCSASQDISNYLNWYQQKPGKAPKVLIYFTSSLHSGVPSRFSGSGSGTDFTLTISSLQPEDFATYYCQQYSTVPWTFGQGTKVEIK
subretinal fluid (OCT) (Case 1, right eye, 3 intra-vitreal injections in one month intervals, before AS101): resolution of the subretinal fluid
